Test: recombinant barcode read abundance after kanamycin selection (control-corrected) (log10(CPM+1)); higher = more efficient recombination; sequences stand for … in AGTGCAGAGAAAATCGGCCAGTTTTCTCTGCCTGCAGTCCGCATGCCGT…AGATTTATGCAGCGGACTGCCTTTCTCCCAAAGTGATAAACCGGACAGTATCATGGACCGGTTTTCCCGGTAATCCGTATTTGCAAGGTTGGTTTCACT; site = the 11-nt target
Procedure, shortened: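 For this pooled screen, each oligo contained a promoter, a target, a barcode and the J23119-driven first 104 bases of the bridge RNA. Gibson cloning placed it into a vector supplying the remaining 73 bp and a T7-inducible recombinase, and the pool was co-electroporated into E. coli with a donor plasmid. Recombination efficiency is derived from barcode counts per million at recombinant junctions after averaging and control correction, and is expressed on a log scale as log10(CPM+1), with selection on chloramphenicol/ampicillin/kanamycin plus 0.1 mM IPTG against a chloramphenicol/ampicillin LB agar control.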
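Note: IS621 recombinase and bridge RNA in Escherichia coli cells.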

Sequence	recombinant barcode read abundance (log10)
CTCCATTCTTGGGTTCTAACCTGTTGCAT (site CTCCATTCTAT)	1.74
CTCCATTCTTGGGTTCTAACCTGTTGCAT (site CTCGATTCTAT)	0.123
CTCCATTCTTGGGTTCTAACCTGTTGCAT (site CTCTATTCTAT)	0.34
CTCCCTACTTGGGTTCTAACCTGTTGCAG (site CTCCCAACTCG)	0.072
CTCCCTACTTGGGTTCTAACCTGTTGCAG (site CTCCCTACTCT)	1.68
CTCCGGCCTTGGGTTCTAACCTGTTGCTT (site CTCCGACCTAA)	0.809
CTCCGGCCTTGGGTTCTAACCTGTTGCTT (site CTCCGCCCTAA)	0.0895
CTCCGGCCTTGGGTTCTAACCTGTTGCTT (site CTCCGGCCTAA)	0.521
CTCCGGCCTTGGGTTCTAACCTGTTGCTT (site CTCCGTCCTAA)	0.0711
CTCCGTACTTGGGTTCTAACCTGTTGCCG (site CTCCGTACTCG)	0.13
CTCCGTACTTGGGTTCTAACCTGTTGCCG (site CTTCGTACTTG)	0.0671
CTCCTACCTTGGGTTCTAACCTGTTGCCT (site CGCCTAGCTAG)	0.11
CTCCTACCTTGGGTTCTAACCTGTTGCCT (site CTCCTACCTAG)	0.957
CTCCTCTCTTGGGTTCTAACCTGTTGCCT (site CTCCTCCCTAG)	0.862
CTCCTCTCTTGGGTTCTAACCTGTTGCCT (site CTCCTCTCTAG)	2.05
CTCCTGCCTTGGGTTCTAACCTGTTGCCT (site CTCCTGCCTAG)	0.977
CTCCTGCCTTGGGTTCTAACCTGTTGCCT (site TTCCTGACTAG)	0.0902
CTCGACACTTGGGTTCTAACCTGTTGCCT (site CTAGACACTAG)	0.697
CTCGACACTTGGGTTCTAACCTGTTGCCT (site CTCGACACTAG)	1.82
CTCGACACTTGGGTTCTAACCTGTTGCCT (site CTGGACACTAG)	0.0603
CTCGACACTTGGGTTCTAACCTGTTGCCT (site CTTGACACTAG)	0.215
CTCGCAGCTTGGGTTCTAACCTGTTGCGG (site CTCGCAGCTCC)	0.313

Sequence	recombinant barcode read abundance (log10)
CTCGCAGCTTGGGTTCTAACCTGTTGCGG (site CTCGCGACTCC)	0.141
CTCGCGACTTGGGTTCTAACCTGTTGCGG (site CTCGCAGCTCC)	0.655
CTCGCGACTTGGGTTCTAACCTGTTGCGG (site CTCGCGACTCC)	0.181
CTCGCTCCTTGGGTTCTAACCTGTTGCTG (site AATAAGTCTAT)	0.102
CTCGCTCCTTGGGTTCTAACCTGTTGCTG (site CTCGCTCCTCA)	0.563
CTCGGAGCTTGGGTTCTAACCTGTTGCCT (site CTCGGAACTAG)	0.499
CTCGGAGCTTGGGTTCTAACCTGTTGCCT (site CTCGGACCTAG)	0.0847
CTCGGAGCTTGGGTTCTAACCTGTTGCCT (site CTCGGAGCTAG)	1.04
CTCGGAGCTTGGGTTCTAACCTGTTGCCT (site CTCGGATCTAG)	0.311
CTCGGATCTTGGGTTCTAACCTGTTGCTT (site CTCGGATCTAA)	1.38
CTCGGATCTTGGGTTCTAACCTGTTGCTT (site CTCGGATCTCA)	0.0569
CTCGGATCTTGGGTTCTAACCTGTTGCTT (site CTCGGATCTGA)	0.0569
CTCGGATCTTGGGTTCTAACCTGTTGCTT (site CTCGGATCTTA)	0.371
CTCTAAACTTGGGTTCTAACCTGTTGCCG (site CTCATAACTCG)	0.132
CTCTAAACTTGGGTTCTAACCTGTTGCCG (site CTCTAAACTCG)	0.311
CTCTACCCTTGGGTTCTAACCTGTTGCGT (site CTCTAACCTAC)	0.272
CTCTACCCTTGGGTTCTAACCTGTTGCGT (site CTCTACCCTAC)	0.589
CTCTACCCTTGGGTTCTAACCTGTTGCGT (site CTCTAGCCTAC)	0.0363
CTCTACCCTTGGGTTCTAACCTGTTGCGT (site CTCTATCCTAC)	0.0916
CTCTAGACTTGGGTTCTAACCTGTTGCGT (site CTCTAGACTAC)	2.01
CTCTAGACTTGGGTTCTAACCTGTTGCGT (site CTTTAGACTAT)	0.211
CTCTATTCTTGGGTTCTAACCTGTTGCAT (site CTCAATTCTAT)	0.262

Sequence	recombinant barcode read abundance (log10)
CTCTATTCTTGGGTTCTAACCTGTTGCAT (site CTCCATTCTAT)	0.16
CTCTATTCTTGGGTTCTAACCTGTTGCAT (site CTCGATTCTAT)	0.161
CTCTATTCTTGGGTTCTAACCTGTTGCAT (site CTCTATTCTAT)	0.242
CTCTCATCTTGGGTTCTAACCTGTTGCTT (site CTCTCATCTAA)	0.0308
CTCTCATCTTGGGTTCTAACCTGTTGCTT (site CTCTCATCTAG)	0.232
CTCTCGCCTTGGGTTCTAACCTGTTGCCT (site CTATCGCCTAG)	0
CTCTCGCCTTGGGTTCTAACCTGTTGCCT (site CTCTCGCCTAG)	0.168
CTCTCGCCTTGGGTTCTAACCTGTTGCCT (site CTGTCGCCTAG)	0.0587
CTCTCGCCTTGGGTTCTAACCTGTTGCCT (site CTTTCGCCTAG)	0.0266
CTCTCGGCTTGGGTTCTAACCTGTTGCCT (site CTCTAGGCTAG)	0.494
CTCTCGGCTTGGGTTCTAACCTGTTGCCT (site CTCTCGGCTAG)	0.865
CTCTCGGCTTGGGTTCTAACCTGTTGCCT (site CTCTGGGCTAG)	0.138
CTCTCGGCTTGGGTTCTAACCTGTTGCCT (site CTCTTGGCTAG)	0.0157
CTCTGCTCTTGGGTTCTAACCTGTTGCTC (site CTCTGCTCTGA)	0.724
CTCTGCTCTTGGGTTCTAACCTGTTGCTC (site GCTGAGGCTTG)	0
CTCTGTCCTTGGGTTCTAACCTGTTGCTA (site CTCTGTCCTTA)	0.346
CTCTGTCCTTGGGTTCTAACCTGTTGCTA (site CTCTGTCCTTG)	0.0487
CTCTTAACTTGGGTTCTAACCTGTTGCTA (site CTCTTAACTTA)	0.128
CTCTTAACTTGGGTTCTAACCTGTTGCTA (site CTCTTAGCTTT)	0.134
CTCTTGACTTGGGTTCTAACCTGTTGCTT (site CTCTGGACTAA)	0.0764
CTCTTGACTTGGGTTCTAACCTGTTGCTT (site CTCTTGACTAA)	0.871
CTGAGCCCTTGGGTTCTAACCTGTTGCCG (site CTAAGCCCTCC)	0.239

Sequence	recombinant barcode read abundance (log10)
CTGAGCCCTTGGGTTCTAACCTGTTGCCG (site CTGAGCCCTCG)	1.08
CTGAGGCCTTGGGTTCTAACCTGTTGCCT (site ATGAGGCCTAG)	0.226
CTGAGGCCTTGGGTTCTAACCTGTTGCCT (site CTGAGGCCTAG)	0.497
CTGAGGCCTTGGGTTCTAACCTGTTGCCT (site GTGAGGCCTAG)	0.11
CTGAGGCCTTGGGTTCTAACCTGTTGCCT (site TTGAGGCCTAG)	0.299
CTGATAACTTGGGTTCTAACCTGTTGCCT (site CTGATAACTAG)	1.02
CTGATAACTTGGGTTCTAACCTGTTGCCT (site CTGATCACTAG)	0.279
CTGATAACTTGGGTTCTAACCTGTTGCCT (site CTGATGACTAG)	0.0814
CTGATAACTTGGGTTCTAACCTGTTGCCT (site CTGATTACTAG)	0.136
CTGCCCGCTTGGGTTCTAACCTGTTGCCT (site CTGCCCGCTAG)	0.667
CTGCCCGCTTGGGTTCTAACCTGTTGCCT (site GTGCTCGCTAG)	0.366
CTGCCCTCTTGGGTTCTAACCTGTTGCCT (site CAGCCCTCTAG)	0.932
CTGCCCTCTTGGGTTCTAACCTGTTGCCT (site CCGCCCTCTAG)	0.179
CTGCCCTCTTGGGTTCTAACCTGTTGCCT (site CGGCCCTCTAG)	0.0113
CTGCCCTCTTGGGTTCTAACCTGTTGCCT (site CTGCCCTCTAG)	1.74
CTGCGCTCTTGGGTTCTAACCTGTTGCAT (site CTGCGCTCTAT)	1.22
CTGCGCTCTTGGGTTCTAACCTGTTGCAT (site TGTGAGCCTTC)	0.0268
CTGCGGTCTTGGGTTCTAACCTGTTGCAT (site ATGCGGTCTAG)	0.138
CTGCGGTCTTGGGTTCTAACCTGTTGCAT (site CTGCGGTCTAT)	1.7
CTGCGTACTTGGGTTCTAACCTGTTGCCG (site CTGCGTACTCG)	0.365

Reference: the supplement of paper PMC11208160
